According to article PMC2663005 (Bioorganic & medicinal chemistry, 2009):

Assays:
S. aureus SrtAΔN24 [1] = target: T1, S. aureus SrtAΔN24 (Staphylococcus aureus, UniProt Q2FV99); assay: biochemical; assay type: biochemical; details: for Hill Coefficient: fit of fractional activity vs inhibitor concentration
SrtA Cys184 = SrtA Cys184 (Staphylococcus aureus, UniProt Q2FV99); assay: ESI-MS and MS/MS of trypsin-digested inhibitor-treated SrtA; assay type: binding; details: SrtA incubated with compound, SDS-PAGE, trypsin digest
S. aureus SrtAΔN24 [2] = target: T1, S. aureus SrtAΔN24; assay: HPLC-based SrtA activity assay at fixed inhibitor concentrations; assay type: biochemical; details: read-out: percent inhibition (%I)

## C=CS(=O)(=O)[C@H]1C[C@]2(C(=O)OC)CCC(=O)N2[C@H]1c1cccnc1 (relative stereo) [Compound 3l, Methyl (2S*,3S*,7aS*)-2-ethenesulfonyl-5-oxo-3-pyridin-3-yl-tetrahydropyrrolizine-7a-carboxylate]
S. aureus SrtAΔN24 [1]
  Hill Coefficient: 1.42 ± 0.14

## C=CS(=O)(=O)[C@H]1C[C@]2(C(=O)OC)CCC(=O)N2[C@H]1c1ccccc1 (relative stereo) [Compound 3j, Methyl (2S*,3S*,7aS*)-2-ethenesulfonyl-5-oxo-3-phenyltetrahydropyrrolizine-7a-carboxylate]
S. aureus SrtAΔN24 [1]
  Hill Coefficient: 1.90 ± 0.23

## C=CS(=O)(=O)[C@H]1C[C@@](CCC(=O)OC)(C(=O)OC)N[C@H]1c1ccc(OC)c(OC)c1 (relative stereo) [Compound 2k, Methyl (2S*,4S*,5S*)-5-(3,4-dimethoxyphenyl)-4-ethenesulfonyl-2-(2-methoxycarbonylethyl)pyrrolidine-2-carboxylate]
S. aureus SrtAΔN24 [1]
  IC50: > 5 mM

## C=CS(=O)(=O)C1CC(C(=O)OC)NC1c1cccc(F)c1 (stereo not shown) [Compound 2c]
SrtA Cys184
  covalent modification of SrtA: formation of a covalent adduct with Cys184

## Cc1cn(C[C@@H]2C[C@H](C#N)[C@H](c3ccccc3)N2C)c(=O)[nH]c1=O (relative stereo) [Compound 9, (2R*,3S*,5S*)-1-Methyl-5-(5-methyl-2,4-dioxo-3,4-dihydro-2H-pyrimidin-1-ylmethyl)-2-phenylpyrrolidine-3-carbonitrile]
S. aureus SrtAΔN24 [2]
  inhibition at 1000 µM: 6%

## C=CS(=O)(=O)[C@H]1C[C@]2(C(=O)OC)CCC(=O)N2[C@H]1c1ccc(OC)c(OC)c1 (relative stereo) [Compound 3k, Methyl (2S*,3S*,7aS*)-3-(3,4-dimethoxyphenyl)-2-ethenesulfonyl-5-oxotetrahydropyrrolizine-7a-carboxylate]
S. aureus SrtAΔN24 [1]
  Hill Coefficient: 1.39 ± 0.28

## C=CS(=O)(=O)[C@H]1C[C@@](CCC(=O)OC)(C(=O)OC)N[C@H]1c1cccnc1 (relative stereo) [Compound 2l, Methyl (2S*,4S*,5S*)-4-ethenesulfonyl-2-(2-methoxycarbonylethyl)-5-pyridin-3-yl-pyrrolidine-2-carboxylate]
S. aureus SrtAΔN24 [1]
  Hill Coefficient: 1.40 ± 0.33
